Experimental data as given in publication PMC8365597, “Structural Insights into Notum Covalent Inhibition” (Journal of Medicinal Chemistry, 2021).
Residue numbers refer to the chain shown, from its start. Blank lines part the entries; values can stand above or below the molecule they belong to.

Assays:
Notum S232A mutant = biological target: T1, Notum S232A mutant (Homo sapiens, UniProt Q6P988, C330S/S232A); experiment: ESI-QTOF intact protein mass spectrometry detection of covalent binding, mutant control; conditions: 10 mM Hepes pH 7.4, 150 mM NaCl, room temperature, 1 h
T1 construct: comprising amino acids S81–T451 with a C330S mutation; inferred from HisTrap purification and imidazole elution; made in house
T1 sequence (Q6P988 81-451 S232A/C330S): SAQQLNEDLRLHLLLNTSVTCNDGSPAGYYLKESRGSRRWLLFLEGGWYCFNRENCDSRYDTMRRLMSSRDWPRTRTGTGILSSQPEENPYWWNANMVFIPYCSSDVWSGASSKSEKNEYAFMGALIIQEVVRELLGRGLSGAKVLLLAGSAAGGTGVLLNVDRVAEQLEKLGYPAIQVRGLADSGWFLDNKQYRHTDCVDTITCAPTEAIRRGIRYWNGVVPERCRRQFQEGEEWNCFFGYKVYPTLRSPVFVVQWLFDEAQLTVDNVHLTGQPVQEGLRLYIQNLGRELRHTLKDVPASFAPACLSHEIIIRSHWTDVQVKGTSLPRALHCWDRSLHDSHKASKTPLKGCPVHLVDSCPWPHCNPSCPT
Protocol: (§1) However, the crystals were grown and soaked under low pH (pH 4.2) and high salt (1.5 M ammonium sulphate) conditions. To measure covalent bonding and stability under near physiological conditions, we incubated Notum (deglycosylated) protein with 1 in buffer containing 10 mM Hepes, pH 7.4, 150 mM NaCl at room temperature for 1 h. The mixture was then subjected to ultrahigh-performance liquid chromatography (uHPLC) reversed-phase chromatography separation, followed by electrospray ionization quadrupole time-of-flight (ESI-QTOF) mass spectrometry analysis. […] There are some other minor peaks that may reflect incomplete removal of glycans. […] The calculated MW of 1 is 233.27 Da, while its methyl ester-hydrolyzed form (RW8) is 201.22 Da. […] To establish whether the covalent link is dependent on the nucleophile serine residue, we further used the Notum S232A mutant as a control, observing a mass of 44103.32 Da (Figure 2C). The decrease of 15.79 Da compared to the wild type is consistent with the expected serine to alanine mutation.
(§2) Reversed-phase chromatography was performed in-line prior to mass spectrometry using an Agilent 1290 uHPLC system (Agilent Technologies inc. USA). […] Protein intact mass was determined using a 6530 ESI-QTOF mass spectrometer (Agilent Technologies Inc. USA). […]

Notum (glycosylated) = biological target: T2, Notum (glycosylated) (Homo sapiens, UniProt Q6P988, C330S); experiment: Thermal shift assay (differential scanning fluorimetry); format: binding; conditions: for ΔTm at 1000 µM: compound 1 mM, read-out: max ΔTm; for ΔTm: compound ∼30 μM (31 μM in Figure 3)
T2 construct: comprising amino acids S81–T451 with a C330S mutation; inferred from HisTrap purification and imidazole elution; made in house
T2 sequence (Q6P988 81-451 C330S): T1 sequence (Q6P988 81-451 S232A/C330S) with A152S
Protocol: To further characterize Notum 1 binding, especially regarding the importance of the methyl ester warhead of 1, we used a thermal shift assay (also known as differential scanning fluorimetry) to compare the binding properties of 1 with its methyl-less acid form, 4-indolinyl-4-oxobutanoic acid (2). The thermal shift assay is a reliable label-free strategy to detect small molecule–protein binding by measuring protein melting temperature (Tm) changes.[39]−[41] A ΔTm of 2 °C or more indicates a small molecule binding to the target protein.[42] Notum was incubated with each compound in the presence of a fluorescent indicator, […], and the melting curves were recorded. 1 and 2, despite only differing by a single methyl group, yield highly different Notum melting curves (Figure 3). […] To establish the dose-dependent thermal shift responses, we performed a twofold serial dilution of the compounds.
Thermal shift assays were carried out in a semiskirted 96-well PCR plate (4-Titude). Each well contains 3 μg of glycosylated Notum protein, 3× SYPRO Orange dye (Thermo Fisher Scientific), and compounds at various concentrations and adjusted to a final volume of 50 μL with assay buffer (10 mM Hepes, pH7.4, 150 mM NaCl, and 2% DMSO). The samples were heated in an Mx3005p qPCR machine (Stratagene, Agilent Technologies) from room temperature at a rate of 1 °C/min for 74 cycles. Fluorescence changes were monitored with excitation and emission wavelengths at 492 and 610 nm, respectively.

Notum [1] = biological target: T3, Notum (Homo sapiens, UniProt Q6P988, C330S); experiment: Notum OPTS activity assay (cell-free biochemical)
T3 construct: comprising amino acids S81–T451 with a C330S mutation; inferred from HisTrap purification and imidazole elution; made in house
T3 sequence (Q6P988 81-451 C330S): T1 sequence (Q6P988 81-451 S232A/C330S) with A152S
Excerpt: Notum is a druggable target for Wnt signaling modulation.[23] We have previously determined a number of structures of Notum inhibitor complexes.[21],[22],[24],[25],[27],[28] All of these inhibitors bind noncovalently at the Notum enzyme catalytic pocket, where the natural substrate PAM binds. For searching covalent inhibitors, we used this noncovalent inhibitor binding information to limit compound docking into the enzyme active site. A virtual library of approximately 1.5 million compounds (ChemDiv) was filtered to generate 534,804 candidates for docking with a Notum structure (PDB code 6T2K) by Schrödinger Glide SP[37],[38] (Experimental Section). Resulting 1330 compounds with score −9 or better were subject to manual inspection and availability check. Finally, 952 compounds were purchased and experimentally screened using a cell-free trisodium 8-octanoyloxypyrene-1,3,6-trisulfonate (OPTS) biochemical assay.[22] […] The soaked crystals were harvested, and diffraction data were collected at the Diamond Light Source. The structures were determined by molecular replacement and refined with Refmac to screen for difference map peaks (Experimental Section). Chemical structures were then fitted into the difference maps with the aim of identifying covalent binders. Methyl 4-indolinyl-4-oxobutanoate (1) was identified as the only covalent binder to emerge from the screen (Figure 1). The 1 soaked crystal diffracted to 1.2 Å resolution with a P2_12_12_1 space group containing one enzyme-inhibitor complex in an asymmetric unit (for data collection and refinement statistics, see Supporting Information, Table S1). The overall structure maintained the characteristic apo Notum fold (Figure 1A), with a α/β hydrolase core domain (β1-8 strands and αB, C, and F helices) and a moveable lid domain (αA, D, and E helices). 1 is composed of an indole ring linked to an oxo-butyric acid methyl ester (Figure 1B). The methyl ester-hydrolyzed 1 (with PDB identifier RW8) is an excellent fit in the strong electron density that extends from the nucleophile residue S232 (Figure 1C). The electron density for the RW8 is of equally high quality to that of the surrounding Notum amino acids. […] The movable lid domain sits between the “open” (PDB code 4UYU) and “closed” (PDB code 4UZ1) conformations with obvious movements of the flexible β6_αD loop (Figure 1D). When superimposed with the natural substrate, PAM-bound, structure (PDB code 4UZQ), the RW8 overlaps with the PAM within the enzyme pocket (Figure 1E). The indole ring is located toward the bottom of the pocket, while the butyric acid head group is well-aligned with the PAM head (Figure 1E). Residues that form the base of the pocket (P287–I291) are positioned closer to the RW8 indole ring than in the PAM-bound structure. For example, P287 Cα has moved 1.7 Å toward the pocket center (Figure 1E) to optimize interactions with the RW8 indole ring, which extends less far into the pocket than PAM.
The Notum inhibitory potencies of these compounds were assessed by determining OPTS IC50 values, which can be used to compare the relative activities of covalent inhibitors under carefully regulated conditions.[43] […] When a phenyl ring is added to produce benzyl ester, 5, the IC50 is also slightly better than 1.
The OPTS activity assay has been described in previous reports.[24],[25] Briefly, the test compounds, the reporter substrate OPTS (Sigma), and the recombinant Notum protein were dispensed into 384-well plates (Greiner) using a Labcyte Echo 550 acoustic liquid handler and incubated 40 min in room temperature. The endpoint fluorescence was measured on a PheraSTAR FSX microplate reader with an excitation wavelength of 485 nm and an emission wavelength of 520 nm. The compound IC50 values were calculated from curves using a 4PL fit.

Notum (deglycosylated) = biological target: T4, Notum (deglycosylated) (Homo sapiens, UniProt Q6P988, C330S); experiment: ESI-QTOF intact protein mass spectrometry detection of covalent binding; conditions: 10 mM Hepes pH 7.4, 150 mM NaCl, room temperature, 1 h
T4 construct: comprising amino acids S81–T451 with a C330S mutation; inferred from HisTrap purification and imidazole elution; made in house
T4 sequence (Q6P988 81-451 C330S): T1 sequence (Q6P988 81-451 S232A/C330S) with A152S
Protocol: as §1, §2

Notum [2] = biological target: T3, Notum; experiment: Cell-based TCF/LEF reporter (luciferase) assay, HEK293 STF cells with exogenous Wnt3a and Notum; conditions: HEK293 TCF/LEF luciferase reporter cell line
Protocol: Selected compounds were further investigated for inhibition of Notum activity in a Wnt/β-catenin signaling pathway TCF/LEF reporter (luciferase) HEK293 cell line with exogenous Wnt3a and Notum.[22],[25]
The cellular Wnt signaling functional assay has been described in previous reports.[24],[25] Briefly, the reporter cell plate containing stable HEK293 STF cells[53] (1 × 10^4 cells per well in 384-well microplates) carrying the Super Top Flash firefly luciferase reporter was prepared (overnight at 37 °C). Compounds and Notum protein were mixed for 10 min before the recombinant Wnt-3A was added and incubated for 1 h at room temperature. Then, the mixture from the compound plates was added to reporter cell plates and incubation overnight at 37 °C. For luciferase assay, steady-glo luciferase assay buffer (20 μL, Promega) was applied to the cell plates using the CyBio, the luminescence was measured on a PHERAstar FSXmicroplate reader with an excitation wavelength of 458 nm and an emission wavelength of 520 nm.

[3] = mean ± s.d. (n = 4), 40 min incubation at room temperature

ΔTm at 8 µM (Notum (glycosylated); compound 8 μM, start of significant changes): 2 °C
ΔTm at 1000 µM (Notum (glycosylated)): 10 °C
ΔTm (Notum (glycosylated)): 5 °C
IC50 (Notum [1]; [3]): 93 ± 20 nM
EC50 (Notum [2]): 530 ± 47 nM
SMILES: COC(=O)CCC(=O)N1CCc2ccccc21 [Compound 1, Methyl 4-indolinyl-4-oxobutanoate]
mass change of treated Notum S232A mutant (Notum S232A mutant): no mass change
mass increase of treated Notum compared to untreated Notum (Notum (deglycosylated)): 201.25 Da

ΔTm at 1000 µM (Notum (glycosylated)): 2.5 °C
ΔTm (Notum (glycosylated)): 1 °C
IC50 (Notum [1]; [3]): 3100 ± 920 nM
SMILES: O=C(O)CCC(=O)N1CCc2ccccc21 [Compound 2, 4-indolinyl-4-oxobutanoic acid]

IC50 (Notum [1]; [3]): 190 ± 45 nM
EC50 (Notum [2]): 300 ± 60 nM
SMILES: CCOC(=O)CCC(=O)N1CCc2ccccc21 [Compound 3]

IC50 (Notum [1]; [3]): 12 ± 2.8 nM
SMILES: O=C(CCC(=O)N1CCc2ccccc21)OCC(F)F [Compound 4]

IC50 (Notum [1]; [3]): 64 ± 14 nM
SMILES: O=C(CCC(=O)N1CCc2ccccc21)OCc1ccccc1 [Compound 5]

IC50 (Notum [1]; [3]): 4300 ± 400 nM
SMILES: CC(C)OC(=O)CCC(=O)N1CCc2ccccc21 [Compound 6]

inhibition at 10 µM (Notum [1]; @ 10 μM, read-out: Notum OPTS % inhibition (% I)): < 10%
Notum OPTS IC50 (Notum [1]; [3]): inactive ^b
SMILES: CC(C)(C)OC(=O)CCC(=O)N1CCc2ccccc21 [Compound 7]
